Among the data in ChEMBL document CHEMBL4043086, “Facile access to pseudo-thio-1,2-dimannoside, a new glycomimetic DC-SIGN antagonist” (Bioorg Med Chem, 2017) are IC50 values, retold here.

For orientation: IC50 means the concentration needed to halve the response being measured. The low end stands for greater potency, the high end for weaker potency.

This test concerns the target T1, CD209 antigen (Homo sapiens, UniProt Q9NNX6).
T1 sequence (Q9NNX6 whole entry): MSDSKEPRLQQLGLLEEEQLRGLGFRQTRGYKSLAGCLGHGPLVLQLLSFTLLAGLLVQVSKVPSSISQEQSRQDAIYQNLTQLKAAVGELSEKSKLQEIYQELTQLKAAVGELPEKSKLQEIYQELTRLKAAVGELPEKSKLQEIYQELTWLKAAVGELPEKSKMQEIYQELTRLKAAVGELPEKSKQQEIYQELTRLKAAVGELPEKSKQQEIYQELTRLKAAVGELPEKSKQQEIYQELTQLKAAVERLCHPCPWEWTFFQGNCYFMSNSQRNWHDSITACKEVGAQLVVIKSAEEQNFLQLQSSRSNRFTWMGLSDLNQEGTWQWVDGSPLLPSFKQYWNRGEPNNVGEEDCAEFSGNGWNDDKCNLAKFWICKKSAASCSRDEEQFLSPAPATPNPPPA
Put plainly: Inhibition of binding of immobilized mannosylated BSA to DC-SIGN extracellular domain (66 to 404 residues) (unknown origin) expressed in Escherichia coli by SPR assay. On the technique in general: In SPR one partner is held on a chip, and binding of the other changes the refractive index at the surface.

`COC(=O)[C@H]1C[C@H](OC(=O)C(C)(C)C)[C@@H](S[C@H]2O[C@H](CO)[C@@H](O)[C@H](O)[C@@H]2O)C[C@@H]1C(=O)OC`: the IC50 was 776 µM.

The compound `COC(=O)[C@H]1C[C@H](OC)[C@@H](O[C@H]2O[C@H](CO)[C@@H](O)[C@H](O)[C@@H]2O)C[C@@H]1C(=O)OC` had an IC50 of 720 µM.

With `COC(=O)[C@H]1C[C@H](OC)[C@@H](S[C@H]2O[C@H](CO)[C@@H](O)[C@H](O)[C@@H]2O)C[C@@H]1C(=O)OC`, the concentration for half-maximal inhibition (IC50) was determined as 776 µM.
